Patent US20230278966A1, “TRIAZOLONE COMPOUNDS FOR CONTROLLING INVERTEBRATE PESTS” (FMC Corporation, priority 2020, published 2023)

System: Root Knot Nematodes
Assay: Nematicide assay: control of Root Knot Nematode galling on host plant roots
Assay type: in vivo
Conditions: drip application, 4-day-old host plant, assessed after 8 days; for pest or weed control at 500 ppm / pest or weed control at 100 ppm: 192 h, read-out: control efficacy (decrease of nematode gall formation on roots compared to the inoculated control)
Protocol: Test compounds were formulated using a solution containing 25% acetone and 75% water. The formulated compounds were applied in 330 μl of liquid through a drip applicator that was positioned above the top of each test unit. Test compounds were applied at 500 ppm and 100 ppm and each test was replicated three times. For evaluating control of Root Knot Nematodes the test unit consisted of a small open container with a 4-day-old host plant inside. The formulated compounds were dripped into the container and the nematodes were applied following the compound's application. The test units were held for 8 days in a growth chamber at 29.4° C. or 85 F. Root invasion by the nematodes was then visually assessed based on presence or absence of galls on the roots.

Structure (SMILES) | pest or weed control at 500 ppm (500 ppm) | control efficacy (decrease of nematode gall formation on roots compared to the inoculated control) (500 ppm) | further results
CCn1c(C(F)(F)F)nn(CCNC(=O)c2ccccc2C(F)(F)F)c1=O [Compound 12] | 100% | – | –
O=C(NCCn1nc(C(F)(F)F)n(C2(C(F)(F)F)CCC2)c1=O)c1ccccc1Br [Compound 142] | – | 100% | –
CC(C)(n1c(C(F)(F)F)nn(CCNC(=O)c2ncccc2C(F)(F)F)c1=O)C(F)(F)F [Compound 160] | – | 100% | –
O=C(NCCn1nc(C(F)(F)F)n(C2(C(F)(F)F)CCC2)c1=O)c1cccnc1Cl [Compound 170] | 100% | – | –
CC(C)n1c(C(F)F)nn(CCNC(=O)c2ccccc2C(F)(F)F)c1=O [Compound 9] | 100% | – | –
CC(C)(C)n1c(C(F)(F)F)nn(CCNC(=O)c2ccccc2Cl)c1=O [Compound 38, 2-Chloro-N-[2-[4-(1,1-dimethylethyl)-4,5-dihydro-5-oxo-3-(trifluoromethyl)-1H-1,2,4-triazol-1-yl]ethyl]benzamide] | 100% | – | –
Cn1c(C(F)(F)F)nn(CCNC(=O)c2ccccc2C(F)(F)F)c1=O [Compound 14, N-[2-[4,5-Dihydro-4-methyl-5-oxo-3-(trifluoromethyl)-1H-1,2,4-triazol-1-yl]ethyl]-2-(trifluoromethyl)benzamide] | 100% | – | –
O=C(NCCn1nc(C(F)(F)F)n(C2CC2)c1=O)c1ccccc1C(F)(F)F [Compound 2] | 100% | – | –
O=C(NCCn1nc(C(F)(F)F)n(C2CC2)c1=O)c1ccccc1Cl [Compound 59] | 100% | – | –
CC(C)(C)n1c(C(F)(F)F)nn(CCNC(=O)c2ccccc2C(F)(F)F)c1=O [Compound 10, N-[2-[4-(1,1-Dimethylethyl)-4,5-dihydro-5-oxo-3-(trifluoromethyl)-1H-1,2,4-triazol-1-yl]ethyl]-2-(trifluoromethyl)benzamide] | 100% | – | –
CC(C)(C)n1c(C(F)(F)F)nn(CCNC(=O)c2ccccc2Br)c1=O [Compound 50, 2-Bromo-N-[2-[4-(1,1-dimethylethyl)-4,5-dihydro-5-oxo-3-(trifluoromethyl)-1H-1,2,4-triazol-1-yl]ethyl]benzamide] | 100% | – | –
O=C(NCCn1nc(C(F)(F)F)n(C2(C(F)(F)F)CCC2)c1=O)c1ccccc1C(F)(F)F [Compound 139] | – | 100% | –
O=C(NCCn1nc(C(F)(F)F)n(C2CC(F)(F)C2)c1=O)c1ccccc1Br [Compound 143] | – | 100% | –
CC(n1c(C(F)(F)F)nn(CCNC(=O)c2cccnc2C(F)(F)F)c1=O)C(F)(F)F (centres unmarked) [Compound 175] | – | 100% | –
CC(C)(n1c(C(F)(F)F)nn(CCNC(=O)c2ccccc2Br)c1=O)C(F)(F)F [Compound 133] | – | 100% | control efficacy (decrease of nematode gall formation on roots compared to the inoculated control) (100 ppm): 100%
CC(C)(n1c(C(F)(F)F)nn(CCNC(=O)c2cccnc2Cl)c1=O)C(F)(F)F [Compound 171] | – | 100% | control efficacy (decrease of nematode gall formation on roots compared to the inoculated control) (100 ppm): 100%
O=C(NCCn1nc(C(F)(F)F)n(C2CC(F)(F)C2)c1=O)c1ccccc1Cl [Compound 148] | – | 100% | control efficacy (decrease of nematode gall formation on roots compared to the inoculated control) (100 ppm): 100%

Structure (SMILES) | pest or weed control at 500 ppm (500 ppm) | control efficacy (decrease of nematode gall formation on roots compared to the inoculated control) (500 ppm) | further results
CC(C)n1c(C(F)(F)F)nn(CCNC(=O)c2ccccc2C(F)(F)F)c1=O [Compound 11] | 100% | – | –
CC1(n2c(C(F)(F)F)nn(CCNC(=O)c3ccccc3C(F)(F)F)c2=O)CC1 [Compound 45] | 100% | – | –
O=C(NCCn1nc(C(F)(F)F)n(C2(C(F)(F)F)CCC2)c1=O)c1cccnc1C(F)(F)F [Compound 169] | 100% | – | –
CC(C)(n1c(C(F)(F)F)nn(CCNC(=O)c2cccnc2C(F)(F)F)c1=O)C(F)(F)F [Compound 165] | – | 100% | control efficacy (decrease of nematode gall formation on roots compared to the inoculated control) (100 ppm): 100%
CC(C)(C)n1c(C(F)(F)F)nn(CCNC(=O)c2cccnc2Cl)c1=O [Compound 92, 2-Chloro-N-[2-[4-(1,1-dimethylethyl)-4,5-dihydro-5-oxo-3-(trifluoromethyl)-1H-1,2,4-triazol-1-yl]ethyl]-3-pyridinecarboxamide] | 100% | – | pest or weed control at 100 ppm (100 ppm): 100%
CC(C)(C)n1c(C(F)(F)F)nn(CCNC(=O)c2cccnc2C(F)(F)F)c1=O [Compound 93] | 100% | – | –
Cc1ccccc1C(=O)NCCn1nc(C(F)(F)F)n(C(C)(C)C(F)(F)F)c1=O [Compound 135] | – | 100% | –
O=C(NCCn1nc(C(F)(F)F)n(CC2CC2)c1=O)c1ccccc1C(F)(F)F [Compound 32, N-[2-[4-(Cyclopropylmethyl)-4,5-dihydro-5-oxo-3-(trifluoromethyl)-1H-1,2,4-triazol-1-yl]ethyl]-2-(trifluoromethyl)benzamide] | 100% | – | –
O=C(NCCn1nc(C(F)(F)F)n(CC(F)(F)F)c1=O)c1ccccc1C(F)(F)F [Compound 1] | 100% | – | –
O=C(NCCn1nc(C(F)(F)F)n(CC(F)(F)F)c1=O)c1ccccc1Cl [Compound 30] | 100% | – | –
O=C(NCCn1nc(C(F)(F)F)n(C2CC(F)(F)C2)c1=O)c1ccccc1C(F)(F)F [Compound 145] | – | 100% | control efficacy (decrease of nematode gall formation on roots compared to the inoculated control) (100 ppm): 100%
CC(C)n1c(C(F)(F)F)nn(CCNC(=O)c2ccccc2Cl)c1=O [Compound 31] | 100% | – | –
CC(C)(n1c(C(F)(F)F)nn(CCNC(=O)c2ccccc2C(F)(F)F)c1=O)C(F)(F)F [Compound 179, N-[2-[4,5-Dihydro-5-oxo-4-(2,2,2-trifluoro-1,1-dimethylethyl)-3-(trifluoromethyl)-1H-1,2,4-triazol-1-yl]ethyl]-2-(trifluoromethyl)benzamide] | 100% | – | pest or weed control at 100 ppm (100 ppm): 100%
CC(C)(C)n1c(C(F)(F)F)nn(CCNC(=O)c2c(F)cccc2C(F)(F)F)c1=O [Compound 128] | – | 100% | –
O=C(NCCn1nc(C(F)(F)F)n(C2(C(F)(F)F)CCC2)c1=O)c1ccccc1Cl [Compound 149] | – | 100% | –
CC(n1c(C(F)(F)F)nn(CCNC(=O)c2cccnc2Cl)c1=O)C(F)(F)F (centres unmarked) [Compound 166] | – | 100% | –
O=C(NCCn1nc(C(F)(F)F)n(C2CC(F)(F)C2)c1=O)c1cccnc1C(F)(F)F [Compound 173] | 100% | – | –
